Patent US20150011623A1, “Pharmaceutical Composition Containing as Active Ingredient Extract From Bark of Liriodendron Tulipifera” (CHO DANG PHARM CO., LTD., priority 2012, published 2015)
Marks after values point to notes of the source that are not given here.

System: acetic acid inducing stomach ulcer model
Assay: acetic acid inducing stomach ulcer model
Type: in vivo, male white rats
Conditions: for gastric lesion area: oral 30 mg/kg once a day for 10 days after operation; for lesion inhibition rate: oral 30 mg/kg once a day for 10 days, vs control group
Description: Efficacy of extract from bark of Liriodendron tulipifera obtained in Preparation Example 1 has been measured according to acetic acid inducing stomach ulcer model. Only solvent has been administered into control group, while extract from the bark of Liriodendron tulipifera has been administered into experimental group. Further, ranitidine and rebamipide used for drug for treating stomach ulcer have been also administered into experimental group. The experiment has been carried out according to the method disclosed in Okabe and Pfeifferi, Did. Dis. 17, pp. 619-628, 1972. 250 g weights of male white rats have been anesthetized with ether and the stomach has been exposed. 50 μl of 20% acetic acid has been injected into the subserosa in fundus of stomach using microliter syringe. Then, the abdomen of rat has been sutured. The drug has been orally administered into the rats at 10:00 am once a day for 10 days after operation. After 4 hour from final administration, animals have been sacrificed by ether. After removing the stomach of rat, the stomach has been spread out. The lesion area has been measured using the photo from digital camera. Computer program Image J 1.38 (NIH, Bethesda, Md.) has been applied for measuring gastric lesion area (mm^2) The lesion inhibition rate and 50% effective dose (ED50) have been calculated as the same manner of HCl-EtOH model.

Compound | gastric lesion area | lesion inhibition rate
CNC(=C[N+](=O)[O-])NCCSCc1ccc(CN(C)C)o1 [ranitidine] | 34.8 ± 4.83* mm^2 | 47.1%
O=C(NC(Cc1cc(=O)[nH]c2ccccc12)C(=O)O)c1ccc(Cl)cc1 (stereo not shown) [rebamipide] | 40.1 ± 7.43 mm^2 | 39.1%
